In patent US20250134146A1, “FLAVANONE COMPOUNDS AND THEIR USE AS FLAVOR MODIFIERS” (Firmenich Incorporated, priority 2022, published 2025):

What was measured:
[1] = target: T1, T1R sweet taste receptor (Homo sapiens, UniProt Q7RTX0+Q8TE23); test: in vitro cell-based assay, cells overexpressing the T1R sweet taste receptor; sweet dose-response curves; conditions: cells that overexpress the T1R sweet taste receptor; calculated from sweet dose-response curves
T1 construct: expressed in transfected cells
T1 sequence (Q8TE23 20-839): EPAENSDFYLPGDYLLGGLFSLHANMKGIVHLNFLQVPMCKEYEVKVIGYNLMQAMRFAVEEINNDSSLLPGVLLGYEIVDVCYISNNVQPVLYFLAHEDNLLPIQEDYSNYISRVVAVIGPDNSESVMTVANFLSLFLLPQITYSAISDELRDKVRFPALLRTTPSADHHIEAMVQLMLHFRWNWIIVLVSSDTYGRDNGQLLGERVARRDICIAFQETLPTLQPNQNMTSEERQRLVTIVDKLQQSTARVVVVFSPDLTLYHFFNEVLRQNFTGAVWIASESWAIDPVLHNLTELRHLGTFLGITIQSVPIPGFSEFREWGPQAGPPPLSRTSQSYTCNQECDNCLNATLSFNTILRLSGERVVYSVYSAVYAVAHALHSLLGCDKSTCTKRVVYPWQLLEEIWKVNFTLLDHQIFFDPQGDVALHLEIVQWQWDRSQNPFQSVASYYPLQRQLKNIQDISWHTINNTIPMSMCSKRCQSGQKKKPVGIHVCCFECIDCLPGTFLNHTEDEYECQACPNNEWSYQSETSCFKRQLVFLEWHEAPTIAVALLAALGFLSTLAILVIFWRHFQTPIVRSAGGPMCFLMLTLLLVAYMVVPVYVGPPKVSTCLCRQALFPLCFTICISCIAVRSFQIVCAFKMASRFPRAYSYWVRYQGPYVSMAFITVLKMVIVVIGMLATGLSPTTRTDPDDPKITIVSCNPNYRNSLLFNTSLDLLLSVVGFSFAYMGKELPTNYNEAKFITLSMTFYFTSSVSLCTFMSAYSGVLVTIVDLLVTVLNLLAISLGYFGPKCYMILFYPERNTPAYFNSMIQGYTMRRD
T1 sequence (Q7RTX0 21-852): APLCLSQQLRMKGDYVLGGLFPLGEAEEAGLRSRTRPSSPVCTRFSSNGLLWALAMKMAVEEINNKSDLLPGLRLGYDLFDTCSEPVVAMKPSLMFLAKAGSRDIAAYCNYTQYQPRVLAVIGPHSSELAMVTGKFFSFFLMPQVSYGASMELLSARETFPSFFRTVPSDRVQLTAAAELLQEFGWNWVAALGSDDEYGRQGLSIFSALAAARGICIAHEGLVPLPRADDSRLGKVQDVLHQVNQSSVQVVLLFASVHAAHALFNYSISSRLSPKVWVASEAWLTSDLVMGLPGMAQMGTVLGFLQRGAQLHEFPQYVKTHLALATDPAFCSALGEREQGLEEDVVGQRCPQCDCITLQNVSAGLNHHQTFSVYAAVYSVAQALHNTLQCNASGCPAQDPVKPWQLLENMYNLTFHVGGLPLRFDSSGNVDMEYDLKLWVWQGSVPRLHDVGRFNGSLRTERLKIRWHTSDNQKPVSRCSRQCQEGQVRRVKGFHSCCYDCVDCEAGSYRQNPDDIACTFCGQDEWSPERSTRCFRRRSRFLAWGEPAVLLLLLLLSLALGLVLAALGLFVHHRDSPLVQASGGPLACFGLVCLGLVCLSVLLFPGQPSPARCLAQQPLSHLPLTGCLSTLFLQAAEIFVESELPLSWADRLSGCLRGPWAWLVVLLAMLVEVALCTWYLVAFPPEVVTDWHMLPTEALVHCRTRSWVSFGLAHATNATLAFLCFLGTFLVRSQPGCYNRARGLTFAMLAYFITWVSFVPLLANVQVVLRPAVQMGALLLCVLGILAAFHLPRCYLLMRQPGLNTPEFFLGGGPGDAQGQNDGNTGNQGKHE
Procedure: Each of Compounds 101-107, 113, and 117-129 was either synthesized or separated from the corresponding synthetic racemate. Thereafter, the compounds were tested in an in vitro cell-based assay having cells that overexpress the T1R sweet taste receptor. The sweet dose-response curves were recorded and the EC50 was calculated. Table 4 sets forth the calculated EC50 values for the compounds tested.

[2] = test system: Human Panelists; test: sensory evaluation of sweetness of 6% sucrose solution containing Compound at its Threshold Concentration, relative to pure sucrose solutions; format: in vivo; conditions: 6% sucrose solution plus Compound at its Threshold Concentration, compared with pure sucrose solutions
Description: (§1) Test samples containing selected experimental compounds were sensory evaluated for sweetness intensity relative to 1.5% sucrose solution by a trained sensory panel of at least 8 panelists. The highest concentration of a Compound which panelists determined to be less sweet than 1.5% sucrose solution was set as its Threshold Concentration (TC). Next, panelists evaluated the sweetness of 6% sucrose solution containing each Compound at its Threshold Concentration (TC), relative to pure sucrose solutions at varying concentrations. Table 5 summarizes the sensory evaluation data for compounds 101,102, 105, 107 and 122-125, 127, 128.

[3] = test system: Human Panelists; test: sensory evaluation of sweetness intensity relative to 1.5% sucrose solution (Threshold Concentration); format: in vivo; conditions: highest concentration judged less sweet than 1.5% sucrose solution, trained sensory panel of at least 8 panelists
Description: as §1

| SMILES | EC50 [1] | Sucrose concentration of equal sweetness to (6% sucrose + Compound at its TC) [2] | Threshold Concentration (TC) - less sweet than 1.5% sucrose [3] | Threshold Concentration (TC) - less sweet than 1.5% sucrose ([3]; value in brackets) |
| --- | --- | --- | --- | --- |
| COc1ccc([C@@H]2Oc3cccc(O)c3C(=O)[C@H]2OC)cc1O (relative stereo) [Compound 127, (−)-(trans)-5-hydroxy-2-(3-hydroxy-4-methoxyphenyl)-3-methoxychroman-4-one] | 1 µM |  |  |  |
| COc1ccc([C@@H]2Oc3cc(O)ccc3C(=O)[C@H]2OC)cc1O (racemic) [Compound 107, (trans)-7-hydroxy-2-(3-hydroxy-4-methoxyphenyl)-3-methoxychroman-4-one] | 7 µM | ≥7.5% | 11 ppm | 35 µM |
| CO[C@H]1C(=O)c2c(O)cc(O)cc2O[C@@H]1c1ccc(O)cc1 (stereo in doubt) [Compound 124, (+)-(trans)-5,7-dihydroxy-2-(4-hydroxyphenyl)-3-methoxychroman-4-one] | 10 µM | ≥8.0% | 5 ppm | 16 µM |
| COc1ccc([C@@H]2Oc3cccc(O)c3C(=O)[C@H]2OC)cc1O (racemic) [Compound 105, (trans)-5-hydroxy-2-(3-hydroxy-4-methoxyphenyl)-3-methoxychroman-4-one] | 0.1 µM | ≥7.5% | 1.5 ppm | 4.8 µM |
| CCO[C@@H]1C(=O)c2c(O)cc(O)cc2O[C@H]1c1ccc(OC)c(O)c1 (relative stereo) [Compound 117, (trans)-5,7-dihydroxy-2-(3-hydroxy-4-methoxyphenyl)-3-ethoxychroman-4-one] | 1 µM |  |  |  |
| COc1ccc([C@H]2Oc3cccc(O)c3C(=O)[C@@H]2OC)cc1O (stereo in doubt) [Compound 126, (+)-(trans)-5-hydroxy-2-(3-hydroxy-4-methoxyphenyl)-3-methoxychroman-4-one] | 0.03 µM |  |  |  |
| CO[C@@H]1C(=O)c2c(O)cc(O)cc2O[C@H]1c1ccc(O)cc1 (relative stereo) [Compound 125, (−)-(trans)-5,7-dihydroxy-2-(4-hydroxyphenyl)-3-methoxychroman-4-one] | > 100 µM |  |  |  |
| COC1C(=O)c2c(O)cccc2OC1c1ccc(O)cc1 (stereo not drawn) [Compound 104, (trans)-5-hydroxy-2-(4-hydroxyphenyl)-3-methoxychroman-4-one] | 4 µM |  |  |  |
| COc1ccc([C@@H]2Oc3cc(O)cc(O)c3C(=O)[C@H]2OC)cc1O (racemic) [Compound 102, (trans)-5,7-dihydroxy-2-(3-hydroxy-4-methoxyphenyl)-3-methoxychroman-4-one] | 1 µM | ≥7.5% | 4 ppm | 12 µM |
| COc1ccc([C@@H]2Oc3cc(O)ccc3C(=O)[C@H]2OC)cc1O (relative stereo) [Compound 129, (−)-(trans)-7-hydroxy-2-(3-hydroxy-4-methoxyphenyl)-3-methoxychroman-4-one] | > 200 µM |  |  |  |
| CCO[C@@H]1C(=O)c2c(O)cccc2O[C@H]1c1ccc(OC)c(O)c1 (relative stereo) [Compound 119, (trans)-5-hydroxy-2-(3-hydroxy-4-methoxyphenyl)-3-ethoxychroman-4-one] | 0.4 µM |  |  |  |
| CO[C@@H]1C(=O)c2c(O)cc(O)cc2O[C@H]1c1ccc(O)cc1 (racemic) [Compound 101, (trans)-5,7-dihydroxy-2-(4-hydroxyphenyl)-3-methoxychroman-4-one] |  | ≥7.5% | 11 ppm | 36 µM |
| COc1ccc([C@H]2Oc3cc(O)ccc3C(=O)[C@@H]2OC)cc1O (stereo in doubt) [Compound 128, (+)-(trans)-7-hydroxy-2-(3-hydroxy-4-methoxyphenyl)-3-methoxychroman-4-one] | 9 µM | ≥8.0% | 5 ppm | 16 µM |
| COc1ccc([C@H]2Oc3cc(O)cc(O)c3C(=O)[C@@H]2OC)cc1O (single isomer, unassigned) [Compound 122, (+)-(trans)-5,7-dihydroxy-2-(3-hydroxy-4-methoxyphenyl)-3-methoxychroman-4-one] | 0.7 µM | ≥8.0%, | 2.5 ppm | 7.5 µM |
| COc1cc(O)c2c(c1)O[C@@H](c1ccc(OC)c(O)c1)[C@H](OC)C2=O (relative stereo) [Compound 113, (trans)-5-hydroxy-2-(3-hydroxy-4-methoxyphenyl)-3,7-dimethoxychroman-4-one] | 25 µM |  |  |  |
| CO[C@@H]1C(=O)c2c(O)cc(O)cc2O[C@H]1c1cc(O)c(O)c(O)c1 (relative stereo) [Compound 121, (trans)-2-(3,4,5-trihydroxyphenyl)-5,7-dihydroxy-3-methoxychroman-4-one] | 180 µM |  |  |  |
| CCOC1C(=O)c2ccc(O)cc2OC1c1ccc(OC)c(O)c1 (stereo not drawn) [Compound 120, (tans)-7-hydroxy-2-(3-hydroxy-4-methoxyphenyl)-3-ethoxychroman-4-one] | 8 µM |  |  |  |
| CCO[C@@H]1C(=O)c2c(O)cc(O)cc2O[C@H]1c1ccc(O)cc1 (relative stereo) [Compound 118, (trans)-5,7-dihydroxy-2-(4-hydroxyphenyl)-3-ethoxychroman-4-one] | 30 µM |  |  |  |
| CO[C@@H]1C(=O)c2ccc(O)cc2O[C@H]1c1ccc(O)cc1 (relative stereo) [Compound 106, (trans)-7-hydroxy-2-(4-hydroxyphenyl)-3-methoxychroman-4-one] | 92 µM |  |  |  |
